Measured values from ChEMBL document CHEMBL1122789, “Synthesis and biological activity of structural analogues of the anticancer benzophenanthridine alkaloid nitidine chloride” (1984).

Key:
B16 [1] = assay: Evaluated for anticancer activity in survival tumor system B16 melanocarcinoma at dose 100 mg/kg; format: functional, Mus musculus
B16 [2] = assay: Evaluated for anticancer activity in survival tumor system B16 melanocarcinoma at dose 25 mg/kg; format: functional, Mus musculus
B16 [3] = assay: Evaluated for anticancer activity in survival tumor system B16 melanocarcinoma at a dose of 12.5 mg/kg, value was reported as weight difference; format: functional, Mus musculus
B16 [4] = assay: Evaluated for anticancer activity in survival tumor system B16 melanocarcinoma at a dose of 25 mg/kg, value was reported as weight difference; format: functional, Mus musculus
B16 [5] = assay: Evaluated for anticancer activity in survival tumor system B16 melanocarcinoma at a dose of 6.25 mg/kg, value was reported as weight difference; format: functional, Mus musculus
B16 [6] = assay: Evaluated for anticancer activity in survival tumor system B16 melanocarcinoma at a dose of 100 mg/kg; Number of Tested survived/number of control survived (7/10); format: functional, Mus musculus
B16 [7] = assay: Evaluated for anticancer activity in survival tumor system B16 melanocarcinoma at a dose of 12.5 mg/kg; Number of Tested survived/number of control survived (9/10); format: functional, Mus musculus
B16 [8] = assay: Evaluated for anticancer activity in survival tumor system B16 melanocarcinoma at a dose of 200 mg/kg; Number of Tested survived/number of control survived (4/10); format: functional, Mus musculus
[9] = Evaluated for anticancer activity in tumor inhibition system CD8F1 mammary tumor at dose 125 mg/kg; format: functional, Mus musculus
KB = assay: Evaluated in vitro for cytotoxicity against KB cell culture system; format: functional; settings: Homo sapiens, read-out: ED50 (the source's name)
L1210 [10] = assay: Evaluated for anticancer activity in survival tumor system L1210 lymphoid leukemia at a dose of 100 mg/kg, value was reported as weight difference; format: functional, Mus musculus
L1210 [11] = assay: Evaluated for anticancer activity in survival tumor system L1210 lymphoid leukemia at a dose of 12.5 mg/kg, value was reported as weight difference; format: functional, Mus musculus
L1210 [12] = assay: Evaluated for anticancer activity in survival tumor system L1210 lymphoid leukemia at a dose of 25 mg/kg, value was reported as weight difference; format: functional, Mus musculus
L1210 [13] = assay: Evaluated for anticancer activity in survival tumor system L1210 lymphoid leukemia at a dose of 3.125 mg/kg, value was reported as weight difference; format: functional, Mus musculus
L1210 [14] = assay: Evaluated for anticancer activity in survival tumor system L1210 lymphoid leukemia at a dose of 50 mg/kg, value was reported as weight difference; format: functional, Mus musculus
L1210 [15] = assay: Evaluated for anticancer activity in survival tumor system L1210 lymphoid leukemia at dose 100 mg/kg; format: functional, Mus musculus
L1210 [16] = assay: Evaluated for anticancer activity in survival tumor system L1210 lymphoid leukemia at a dose of 100 mg/kg; Number of Tested survived/number of control survived (6/6); format: functional, Mus musculus
L1210 [17] = assay: Evaluated for anticancer activity in survival tumor system L1210 lymphoid leukemia at a dose of 25 mg/kg; Number of Tested survived/number of control survived (6/6); format: functional, Mus musculus
L1210 [18] = assay: Evaluated for anticancer activity in survival tumor system L1210 lymphoid leukemia at a dose of 3.125 mg/kg; Number of Tested survived/number of control survived (6/6); format: functional, Mus musculus
L1210 [19] = assay: Evaluated for anticancer activity in survival tumor system L1210 lymphoid leukemia at a dose of 50 mg/kg; Number of Tested survived/number of control survived (6/6); format: functional, Mus musculus
L1210 [20] = assay: Evaluated for anticancer activity in survival tumor system L1210 lymphoid leukemia at dose 3.12 mg/kg; format: functional, Mus musculus
L1210 [21] = assay: Evaluated for anticancer activity in survival tumor system L1210 lymphoid leukemia at dose 50 mg/kg; format: functional, Mus musculus
[22] = test system: Lewis lung carcinoma cell line; assay: Evaluated for anticancer activity in survival tumor system Lewis lung (LL) carcinoma at a dose of 12.5 mg/kg; Number of Tested survived/number of control survived (10/10); format: functional, Mus musculus
[23] = test system: Lewis lung carcinoma cell line; assay: Evaluated for anticancer activity in survival tumor system Lewis lung (LL) carcinoma at a dose of 50 mg/kg;Number of Tested survived/number of control survived (10/10); format: functional, Mus musculus
[24] = test system: Lewis lung carcinoma cell line; assay: Evaluated for anticancer activity in survival tumor system tumor system Lewis lung (LL) carcinoma at a dose of 100 mg/kg; Number of Tested survived/number of control survived (10/10); format: functional, Mus musculus
[25] = test system: Lewis lung carcinoma cell line; assay: Evaluated for anticancer activity in survival tumor system tumor system Lewis lung (LL) carcinoma at a dose of 200 mg/kg; Number of Tested survived/number of control survived (2/10); format: functional, Mus musculus
MX1 [26] = assay: Evaluated for anticancer activity in tumor inhibition system MX-1 breast xenograph at a dose of 600 mg/kg; Number of Tested survived/number of control survived (0/6); format: functional, Homo sapiens
MX1 [27] = assay: Evaluated for anticancer activity in tumor inhibition system MX-1 breast xenograph at dose 75 mg/kg; format: functional, Homo sapiens
MX1 [28] = assay: Evaluated for anticancer activity in tumor inhibition system MX-1 breast xenograph at a dose of 150mg/kg, value was reported as weight difference; format: functional, Homo sapiens
[29] = test system: Lewis lung carcinoma cell line; assay: Evaluated for anticancer activity in survival tumor system Lewis lung (LL) carcinoma at a dose of 100 mg/kg, value was reported as weight difference; format: functional, Mus musculus
[30] = test system: Lewis lung carcinoma cell line; assay: Evaluated for anticancer activity in survival tumor system Lewis lung (LL) carcinoma at a dose of 25 mg/kg, value was reported as weight difference; format: functional, Mus musculus
[31] = test system: Lewis lung carcinoma cell line; assay: Evaluated for anticancer activity in survival tumor system Lewis lung (LL) carcinoma at a dose of 50 mg/kg, value was reported as weight difference; format: functional, Mus musculus
P388 [32] = assay: Evaluated for anticancer activity in survival tumor system P388 lymphocytic leukemia at dose 12.5 mg/kg; format: functional, Mus musculus
P388 [33] = assay: Evaluated for anticancer activity in survival tumor system P388 lymphocytic leukemia at dose 25 mg/kg; format: functional, Mus musculus
P388 [34] = assay: Evaluated for anticancer activity in survival tumor system P388 lymphocytic leukemia at a dose of 25 mg/kg, value was reported as weight difference; format: functional, Mus musculus
[35] = Evaluated for anticancer activity in tumor inhibition system colon 38 at a dose of 200 mg/kg, value was reported as weight difference; format: functional, Mus musculus
[36] = Evaluated for anticancer activity in tumor inhibition system colon 38 at a dose of 400 mg/kg, value was reported as weight difference; format: functional, Mus musculus
[37] = Evaluated for anticancer activity in tumor inhibition system colon 38 at a dose of 50 mg/kg, value was reported as weight difference; format: functional, Mus musculus
[38] = Evaluated for anticancer activity in tumor inhibition system colon 38 tumors at a dose of 100 mg/kg; Number of Tested survived/number of control survived (10/10); format: functional, Mus musculus
[39] = Evaluated for anticancer activity in tumor inhibition system colon 38 tumors at a dose of 50 mg/kg; Number of Tested survived/number of control survived (10/10); format: functional, Mus musculus
[40] = Evaluated for anticancer activity in tumor inhibition system colon 38 tumors at a dose of 800 mg/kg; Number of Tested survived/number of control survived (0/10); format: functional, Mus musculus
[41] = Evaluated for anticancer activity in tumor inhibition system colon 38 at a dose of 100 mg/kg, value was reported as weight difference; format: functional, Mus musculus
MX1 [42] = assay: Evaluated for anticancer activity in tumor inhibition system MX-1 breast xenograph at a dose of 150 mg/kg; Number of Tested survived/number of control survived (5/6); settings: Homo sapiens

COc1cc2c[n+](C)c3c(c2cc1OC)Cc1cc2c(cc1-3)OCO2.[Cl-]
T/C (B16 [1]): 120% | T/C (B16 [2]): 139% | Weight change (B16 [3]): -1 | Weight change (B16 [4]): -2.5 | Weight change (B16 [5]): -0.5 | Survival (B16 [6]): 7 | Survival (B16 [7]): 9 | Survival (B16 [8]): 4 | T/C [9]: 105% | EC50 (KB): 0.038 µg/mL | Weight change (L1210 [10]): -5.8 | Weight change (L1210 [11]): -2.6 | Weight change (L1210 [12]): -5.4 | Weight change (L1210 [13]): -1.9 | Weight change (L1210 [14]): -5.8 | T/C (L1210 [15]): 95% | Survival (L1210 [16]): 6 | Survival (L1210 [17]): 6 | Survival (L1210 [18]): 6 | Survival (L1210 [19]): 6 | T/C (L1210 [20]): 129% | T/C (L1210 [21]): 198% | Survival [22]: 10 | Survival [23]: 10 | Survival [24]: 10 | Survival [25]: 2 | Survival (MX1 [26]): 0 | T/C (MX1 [27]): 102% | Weight change (MX1 [28]): -6 | Weight change [29]: -3.8 | Weight change [30]: -2.4 | Weight change [31]: -2.6 | T/C (P388 [32]): 134% | T/C (P388 [33]): 151% | Weight change (P388 [34]): -3.6 | Weight change [35]: -4.3 | Weight change [36]: -6.2 | Weight change [37]: -0.8 | Survival [38]: 10 | Survival [39]: 10 | Survival [40]: 0 | Weight change [41]: -1.9 | Survival (MX1 [42]): 5
